Reference: patent US10975068B2, “6-aminopyridin-3-yl thiazoles as modulators of RORγT” (Janssen Pharmaceutica NV, priority 2016, dated 2021)
pIC50, pKd: −log10 of the molar value. Read-outs that look alike come from different tables or passages of the source.

Columns and labels:
[1] = target: human RORγt ligand binding domain (RORγt LBD) (Homo sapiens (Human), UniProt P51449); test: RORγt ThermoFluor® assay (thermal shift binding); settings: read-out: ThermoFluor® Assay, Kd
Outline: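 His-tagged human RORγt LBD (0.065 mg/mL) with 60 μM 1,8-ANS in 100 mM Hepes pH 7.0, 10 mM NaCl, 2.5 mM GSH, 0.002% Tween-20 was heated at 1 °C/min.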

full-length human RORγt = full-length human RORγt (Homo sapiens (Human), UniProt P51449); test: RORγt (full-length human) reporter assay, Conditions B or C; format: cell-based; settings: for inhibition at 3 µM: at 3 μM compound concentration, read-out: RORγt (FL) Reporter Assay B or C, % inhibition; for RORγt (FL) Reporter Assay B or C, % inhibition (value marked *): marked *: footnote not given
full-length human RORγt, sequence (P51449 other isoform, or with tags, fused parts or gaps): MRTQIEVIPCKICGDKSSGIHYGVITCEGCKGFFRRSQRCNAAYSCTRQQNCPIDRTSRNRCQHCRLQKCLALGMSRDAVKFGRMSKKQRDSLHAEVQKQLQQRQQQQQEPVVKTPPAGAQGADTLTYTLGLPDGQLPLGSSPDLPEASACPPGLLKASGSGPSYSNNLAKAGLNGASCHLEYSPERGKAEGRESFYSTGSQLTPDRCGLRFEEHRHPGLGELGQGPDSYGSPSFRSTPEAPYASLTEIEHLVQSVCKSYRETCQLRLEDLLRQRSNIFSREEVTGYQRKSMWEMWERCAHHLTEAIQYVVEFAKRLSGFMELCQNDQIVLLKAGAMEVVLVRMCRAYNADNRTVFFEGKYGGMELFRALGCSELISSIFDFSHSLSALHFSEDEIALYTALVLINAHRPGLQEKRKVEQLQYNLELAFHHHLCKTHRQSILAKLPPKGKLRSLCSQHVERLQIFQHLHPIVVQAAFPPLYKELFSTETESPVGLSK
Outline: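 HEK293T cells transiently co-transfected with GAL4-DBD–full-length human RORγt (nt 142-1635, NM_001001523.1) plus GAL4-firefly and CMV-Renilla luciferase reporters; compounds added 4-6 h post-transfection for 16-20 h in 1.3% FBS, 0.1% DMSO. Firefly signal normalized to DMSO and saturating reference compound, then to Renilla; IC50 from concentration plots.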

[2] = read-out: RORγt (FL) Reporter Assay B or C, IC50
[3] = Conditions B or C, read-out: RORγt (FL) Reporter Assay B or C, IC50

human RORγt ligand binding domain (RORγt LBD), sequence (P51449 other isoform, or with tags, fused parts or gaps): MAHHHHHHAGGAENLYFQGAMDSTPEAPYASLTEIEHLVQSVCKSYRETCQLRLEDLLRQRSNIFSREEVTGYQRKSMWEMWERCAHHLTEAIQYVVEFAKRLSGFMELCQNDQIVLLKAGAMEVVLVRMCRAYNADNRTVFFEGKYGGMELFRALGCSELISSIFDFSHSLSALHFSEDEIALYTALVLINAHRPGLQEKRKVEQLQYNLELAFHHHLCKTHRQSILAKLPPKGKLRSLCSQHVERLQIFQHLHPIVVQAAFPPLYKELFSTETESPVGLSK

pKd [1]	inhibition at 3 µM (full-length human RORγt) [%]	pIC50 (full-length human RORγt; [2])	RORγt (FL) Reporter Assay B or C, % inhibition (value marked *) (full-length human RORγt; Conditions B or C)	pIC50 (full-length human RORγt; [3])	inhibition at 6 µM (full-length human RORγt; read-out: RORγt (FL) Reporter Assay B or C, % inhibition @ 6 μM, Conditions B or C, @ 6 μM) [%]	Structure (SMILES)	pIC50 (full-length human RORγt; RORγt (FL) Reporter Assay B or C, IC50)
8.31	110	7.80				C[C@H]1CCCN1C(=O)c1nc(C(=O)NCC(C)(C)O)sc1-c1cnc(N[C@@H]2CCCC2(F)F)cc1C(F)(F)F (single isomer, unassigned) [Example 280, 5-(6-(((R*)-2,2-Difluorocyclopentyl)amino)-4-(trifluoromethyl)pyridin-3-yl)-N-(2-hydroxy-2-methylpropyl)-4-((S)-2-methylpyrrolidine-1-carbonyl)thiazole-2-carboxamide]	
8.04	125	7.23				C[C@H]1CCCN1C(=O)c1nc(C(=O)N2C[C@@H](O)[C@H](F)C2)sc1-c1cnc(NC(C)(C)C)cc1C(F)(F)F [Example 372, [5-[6-(tert-Butylamino)-4-(trifluoromethyl)-3-pyridyl]-2-[(3R,4R)-3-fluoro-4-hydroxy-pyrrolidine-1-carbonyl]thiazol-4-yl]-[(2S)-2-methylpyrrolidin-1-yl]methanone]	
8.68	99	7.68				C[C@H]1CCCN1C(=O)c1nc(C(=O)N[C@H]2CC[C@@H](O)C2)sc1-c1cnc(NC(C)(C)C)cc1C(F)(F)F [Example 367, 5-[6-(tert-Buylamino)-4-(trifluoromethyl)-3-pyridyl]-N-[(1S,3R)-3-hydroxycyclopentyl]-4-[(2S)-2-methylpyrrolidine-1-carbonyl]thiazole-2-carboxamide]	
8.68	89	7.12				C[C@H](CO)NC(=O)c1nc(C(=O)N2CC(F)(F)C[C@@H]2C)c(-c2cnc(N[C@@H](C)C(F)(F)F)cc2C(F)F)s1 [Example 447, 4-[(2S)-4,4-Difluoro-2-methyl-pyrrolidine-1-carbonyl]-5-[4-(difluoromethyl)-6-[[(1S)-2,2,2-trifluoro-1-methyl-ethyl]amino]-3-pyridyl]-N-[(1R)-2-hydroxy-1-methyl-ethyl]thiazole-2-carboxamide]	
8.92	118	8.05				C[C@H]1CCCN1C(=O)c1nc(C(=O)N[C@@H]2CCC[C@H]2O)sc1-c1cnc(NC(C)(C)C)cc1C(F)F [Example 397, 5-[6-(tert-Butylamino)-4-(difluoromethyl)-3-pyridyl]-N-[(1R,2R)-2-hydroxycyclopentyl]-4-[(2S)-2-methylpyrrolidine-1-carbonyl]thiazole-2-carboxamide]	
9.11			107* %	8.48		C[C@H]1CCCN1C(=O)c1nc(C(=O)NCC(C)(C)O)sc1-c1cnc(NCC2(C(F)(F)F)CCC2)cc1C(F)(F)F [Example 117, (S)—N-(2-Hydroxy-2-methylpropyl)-4-(2-methylpyrrolidine-1-carbonyl)-5-(4-(trifluoromethyl)-6-(((1-(trifluoromethyl)cyclobutyl)methyl)amino)pyridin-3-yl)thiazole-2-carboxamide]	
9.74			98* %	7.80		C[C@H]1CC(F)(F)CN1C(=O)c1nc(C(=O)N[C@H]2COC[C@@H]2O)sc1-c1cnc(NC2(C)CCC2)cc1C(F)(F)F [Example 186]	
8.59	104	7.64				C[C@H]1CCCN1C(=O)c1nc(C(=O)NC2(CO)COC2)sc1-c1cnc(NC(C)(C)C)cc1C(F)(F)F [Example 261, 5-[6-(tert-Butylamino)-4-(trifluoromethyl)-3-pyridyl]-N-[3-(hydroxymethyl)oxetan-3-yl]-4-[(2S)-2-methylpyrrolidine-1-carbonyl]thiazole-2-carboxamide]	
9.05	105	8.51				C[C@H]1CCCN1C(=O)c1nc(C(=O)N[C@H]2COC[C@@H]2O)sc1-c1cnc(NC(C)(C)C)cc1C(F)(F)F [Example 348, 5-[6-(tert-Butylamino)-4-(trifluoromethyl)-3-pyridyl]-N-[(3S,4R)-4-hydroxytetrahydrofuran-3-yl]-4-[(2S)-2-methylpyrrolidine-1-carbonyl]thiazole-2-carboxamide]	
8.92			106* %	7.47		C[C@H](O)[C@@H](C)NC(=O)c1nc(C(=O)N2CCC[C@@H]2C)c(-c2cnc(NC(C)(C)C)cc2C(F)(F)F)s1 (relative stereo) [Example 235, 5-(6-(tert-Butylamino)-4-(trifluoromethyl)pyridin-3-yl)-N-((2R*,3S*)-3-hydroxybutan-2-yl)-4-((S)-2-methylpyrrolidine-1-carbonyl)thiazole-2-carboxamide]	
8.31				7.66	107	C[C@H](Nc1cc(C(F)F)c(-c2sc(C(=O)NCC(C)(C)O)nc2C(=O)N2CCC[C@@H]2C)cn1)C1CC1 [Example 43, 5-(6-(((S)-1-Cyclopropylethyl)amino)-4-(difluoromethyl)pyridin-3-yl)-N-(2-hydroxy-2-methylpropyl)-4-((S)-2-methylpyrrolidine-1-carbonyl)thiazole-2-carboxamide]	
8.39			96* %	8.02		CC[C@H](Nc1cc(C(F)F)c(-c2sc(C(=O)N[C@H](C)[C@@H](C)O)nc2C(=O)N2CCC[C@@H]2C)cn1)C(F)(F)F (relative stereo) [Example 216, 5-(4-(Difluoromethyl)-6-(((S)-1,1,1-trifluorobutan-2-yl)amino)pyridin-3-yl)-N-((2R*,3R*)-3-hydroxybutan-2-yl)-4-((S)-2-methylpyrrolidine-1-carbonyl)thiazole-2-carboxamide]	
8.60			107* %	7.24		CC[C@H](Nc1cc(C(F)F)c(-c2sc(C(=O)NC3CS(=O)(=O)C3)nc2C(=O)N2CCC[C@@H]2C)cn1)C(F)(F)F [Example 240, 5-[4-(Difluoromethyl)-6-[[(1S)-1-(trifluoromethyl)propyl]amino]-3-pyridyl]-N-(1,1-dioxothietan-3-yl)-4-[(2S)-2-methylpyrrolidine-1-carbonyl]thiazole-2-carboxamide]	

Structure (SMILES)	pKd [1]	inhibition at 3 µM (full-length human RORγt) [%]	pIC50 (full-length human RORγt; [2])	RORγt (FL) Reporter Assay B or C, % inhibition (value marked *) (full-length human RORγt; Conditions B or C)	pIC50 (full-length human RORγt; [3])	inhibition at 6 µM (full-length human RORγt; read-out: RORγt (FL) Reporter Assay B or C, % inhibition @ 6 μM, Conditions B or C, @ 6 μM) [%]	pIC50 (full-length human RORγt; RORγt (FL) Reporter Assay B or C, IC50)
O=C(N[C@H]1CC[C@H](O)C1)c1nc(C(=O)N2C3CCC2CC3)c(-c2cnc(N[C@@H](C3CC3)C(F)(F)F)cc2C(F)F)s1 [Example 441, 4-((1s,4s)-7-Azabicyclo[2.2.1]heptane-7-carbonyl)-5-[6-[[(1S)-1-cyclopropyl-2,2,2-trifluoro-ethyl]amino]-4-(difluoromethyl)-3-pyridyl]-N-[(1S,3S)-3-hydroxycyclopentyl]thiazole-2-carboxamide]	9.33	106					7.44
CC(C)(O)CNC(=O)c1nc(C(=O)N2C3CCC2CC3)c(-c2cnc(NC(C3CC3)C3CC3)cc2C(F)F)s1 [Example 178, 4-((1s,4s)-7-Azabicyclo[2.2.1]heptane-7-carbonyl)-5-(6-((dicyclopropylmethyl)amino)-4-(difluoromethyl)pyridine-3-yl)-N-(2-hydroxy-2-methylpropyl)thiazole-2-carboxamide]	8.70			102* %	8.26		
